Data reported in patent US8969515B2, “Pharmaceutical composition for treating hyperproliferative diseases” (OOO “MetaMax”, priority 2011, dated 2015).

Columns and labels:
[1] = tested on: cell lines HEK293 and A549; assay: Cell cycle arrest by chemotherapeutics alone, preliminary experiments; assay type: cell-based, human; settings: 100 nMol
Source text: This concentration for all drugs was 100 nMol.

A549 cells xenograft = assay: Anti-tumor activity in vivo, local injection, A549 xenograft; settings: 24 days
Source text: 10 mice constituted the 1st treatment group. […] The experiment lasted 24 days.
In the experimental groups, we observed a reduced tumor growth and on day 6 after the begin of administration of the peptide there could be observed a significant reduction in tumor volume in experimental groups compared with the control ones (FIG. 32). The experiment lasted 24 days. During this time, we performed 10 injections of the chimeric peptide in the experimental groups. In the control group, on day 24 of the experiment, the average tumor volume in mice was 95.24 mm^3, one mouse died. In the first experimental group (administered dose of peptide—0.1 mg) average tumor volume was 39.29 mm^3, one mouse died.

HCT-116 cells xenograft = assay: Anti-tumor activity in vivo, local injection, HCT-116 xenograft; set-up: species or system mice; settings: 0.1 mg group, 28 days
Source text: The tumor nodule of HCT-116 cells is characterized by a large in size and the presence of ulceration. In the control group, on day 28 of the experiment the average tumor volume reached 679 mm^3, 3 mice died during the experiment. In the test group, a lower rate of tumor growth was observed (FIG. 32), on day 28 of the experiment the average tumor volume was 225.4 mm^3, the number of dead animals in the experimental group was 2.

[2] = tested on: HEK293 cell line synchronized in G0/G1 phase; assay: Cell cycle phase analysis by flow cytofluorometry after sync block removal; assay type: cell-based, human; settings: for antiproliferative effect on cell cycle: peptide added at sync block removal
Method: (§1) In experiments with cell lines we evaluated the distribution of cells according to the phases of the cell cycle and calculated the proliferation index. For analysis we used software FloMax 2.0 (built-in option of flow cytofluorimenter) and software Modfit LT 3.0 (FIGS. 7 and 8). We also carried out the determination of the proportion of cells entered the apoptosis based on size of “pre-G1-hypodiploid” peak on DNA histogram (FIG. 8 (B)). Experiments were performed both on cell lines synchronized in phase G1/S, and on non-synchronized cell lines Raji, Jurkatt, A549, HEK 293, MCF-7.
The study of the effects of peptides was conducted on transplantable cell cultures. In order to study alterations in the expression of specific intracellular regulators and in order to improve visualization of the experiments, the cells were pre-synchronized.
At the first stage of the evaluation of the obtained results, we investigated the effect of internalizable chimeric peptides with different active centers—p16INK4a and p21/CIP/KIP. The chimeric peptide to be studied was added at the moment of the sync block removal. Cell cycle analysis was performed every 2 hours for 24 hours after removal of the block.
We investigated chimeric peptides having p16INK4a active center and having different types of vectors, Tat and pAntp. […] As is seen from FIG. 18, plots of dependencies of the number of cells in the cell cycle phases are similar in appearance for the two types of peptide vectors carrying p16 fragment. In the control sample—synchronized cell culture without the addition of the study peptide, the number of cells in G0/G1-phase starts to decline as early as 2 hours after removal of the synch block, and 10 hours later we recorded the lowest number of cells in G0/G1-phase. S-phase in the control samples starts to increase 4-6 hours after sync block removal and reaches a maximum after 12 hours.

cyclin B = assay: Cyclin B mRNA expression by quantitative RT-PCR; assay type: cell-based, human
Method: FIG. 29. Study of cyclin B synthesis in HEK293 cell culture by adding peptide Tat_p16 (30 µMol). […] X-axis—incubation time (hours), Y-axis—abstract units.
It is known that the phosphorylation of pRb is an initiating step for activation of expression of cyclins A and B and for transition of cells from G1 into S phase of the cell cycle. Quantitative PCR method was used to study mRNA expression level of cyclin B when exposed to Tat_p16 peptide. For this purpose during experiment on synchronized culture with adding Tat_p16 chimeric peptide at a concentration of 40 µmol, we performed a parallel selection of cells from samples for RNA extraction, whereas a part of the cells served the determination of the cell cycle phases. Further processing of the material involved RNA isolation and quantitative PCR reaction setting (RT-PCR) carried out according to the protocol.

HEK293 cell line = assay: Apoptosis level (hypodiploid peak) in HEK293 culture; assay type: cell-based, human; settings: synchronized culture
Method: FIG. 16. Mean apoptosis values for synchronized HEK293 cell culture in a series of experiments using internalized peptides with active centers p21 and p16. Incubation time with peptide is 24 hours. Concentration of peptides is 40 µMol. Y-axis—percentage of apoptotic particles.
FIG. 20. Mean apoptosis values in synchronized culture of HEK293 after addition of chimeric peptides Tat_p16 and pAntp p16. […] The peptides were added at the moment of synchronization block removal. The effect was evaluated after 24 hours.
FIG. 21. Change in the level of apoptosis in the cell culture depending on the incubation time with peptides Tat_p16 and pAntp_p16 for synchronized 293 cell line (A) and synchronized A549 cell line (B).
as §1

[3] = tested on: cell lines A549, HEK293 and MCF-7; assay: Apoptosis level with pAntp chimeric peptide versions; assay type: cell-based, human; settings: 40 μM, lines A549 and HEK 293, non-synchronized and synchronized
Method: FIG. 24. Effect of chimeric peptides containing a p16INK4a fragment on apoptosis level in non-synchronized and synchronized cell line A549. Peptide concentration is 40 µM. Y-axis—percentage of apoptotic bodies.
FIG. 25. Effect of chimeric peptides containing a p16INK4a fragment on apoptosis level in non-synchronized and synchronized HEK293 cell line. Peptide concentration is 40 µM. Y-axis—percentage of apoptotic bodies.
FIG. 26. Comparisons of cytotoxic effect of chimeric peptides pAntpp16 (1, 2) on HEK293 cell culture.
In the next phase of work, we assessed the dependence of the cytotoxic effect exerted by the chimeric test peptides with the peptide vector pAntp. An experiment to determine the level of apoptosis was carried out on the cell lines A549 (human, lung carcinoma), HEK293 (human, embryonic kidney) and MCF-7 (human, mammary adenocarcinoma). Cells were cultured by standard techniques in DMEM medium containing 10% of FSB. A part of the cells was previously synchronized using the method of double thymidine block and synchronization method with the depleted media (see “Experiment. Parts”). The chimeric test peptides pAntp-p16 (1 and 2) were added to the culture medium. As a negative control we used cells treated with the peptide pAntp_zam (FIGS. 24, 25).

[4] = tested on: HEK293 cell line, non-synchronized and synchronized; assay: Effect of pAntp chimeric peptide versions on cell cycle, HEK293; assay type: cell-based, human; settings: 40 μM; for changes of the cell cycle phases: synchronized and nonsynchronized cells
Method: FIG. 22. Effect of chimeric peptide pAntp containing a p16INK4a fragment, on the cell cycle. A—non-synchronized cell line HEK293, B—cell line HEK293 synchronized in S-phase. Peptide concentration is 40 µM. The peptides are pAntp and three further peptides 1-p16, 2-p16, and 3-p16, wherein peptides 1-p16 and 2-p16 are synthetic peptides differing by the location of the 20 amino acids fragment of p16 relative to pAntp; and peptide 3-p16 is a genetically engineered peptide comprising a 50 amino acids insert of protein Antp.
We used three versions of the chimeric peptide containing p16INK4a active center and pAntp vector. These chimeric peptides differ by location of the active center relative to N-C termini of the molecule and the presence of an insertion of 44 amino acids ([…], SEQ ID NO: 9) for peptide 3 produced by genetic engineering method (Table 1).
In the study of the properties of these peptides we also investigated synchronized and nonsynchronized cell cultures. In a synchronized culture, the peptide was added at the time of sync block removal and in the nonsynchronized at a monolayer density (for adhesion cultures) of ~50%.

[5] = after sync block removal, 40 μM

O=c1[nH]cc(F)c(=O)[nH]1 [5-fluorouracil]
cell cycle arrest phase [1]: G0/G1-phase arrest

COc1cc([C@@H]2c3cc4c(cc3[C@@H](O[C@@H]3O[C@@H]5CO[C@@H](C)O[C@H]5[C@H](O)[C@H]3O)[C@H]3COC(=O)[C@H]23)OCO4)cc(OC)c1O [Etoposide]
cell cycle arrest phase [1]: S-phase arrest

CC(=O)O[C@H]1C(=O)[C@@]2(C)[C@H]([C@H](OC(=O)c3ccccc3)[C@]3(O)C[C@H](OC(=O)[C@H](O)[C@@H](NC(=O)c4ccccc4)c4ccccc4)C(C)=C1C3(C)C)[C@]1(OC(C)=O)CO[C@@H]1C[C@@H]2O [Taxol]
cell cycle arrest phase [1]: G2/M-phase arrest

CC[C@H](C)[C@H](NC(=O)[C@H](CCCCN)NC(=O)[C@@H](NC(=O)[C@H](CCC(N)=O)NC(=O)[C@H](CCCNC(=N)N)NC(=O)[C@H](CO)NC(=O)[C@H](CCCNC(=N)N)NC(=O)[C@H](C)NC(=O)CNC(=O)[C@H](C)NC(=O)[C@H](CCCNC(=N)N)NC(=O)[C@H](Cc1c[nH]cn1)NC(=O)[C@H](CC(C)C)NC(=O)[C@@H](NC(=O)[C@@H](NC(=O)[C@H](CC(C)C)NC(=O)[C@@H](NC(=O)[C@H](CC(=O)O)NC(=O)[C@H](CC(C)C)NC(=O)[C@H](Cc1ccccc1)NC(=O)CNC(=O)[C@H](CCC(=O)O)NC(=O)[C@H](CCCNC(=N)N)NC(=O)[C@H](C)NC(=O)[C@H](C)NC(=O)[C@@H](N)CC(=O)O)[C@@H](C)O)C(C)C)C(C)C)[C@@H](C)CC)C(=O)N[C@@H](Cc1c[nH]c2ccccc12)C(=O)N[C@@H](Cc1ccccc1)C(=O)N[C@@H](CCC(N)=O)C(=O)N[C@@H](CC(N)=O)C(=O)N[C@@H](CCCNC(=N)N)C(=O)N[C@@H](CCCNC(=N)N)C(=O)N[C@@H](CCSC)C(=O)N[C@@H](CCCCN)C(=O)N[C@@H](Cc1c[nH]c2ccccc12)C(=O)N[C@@H](CCCCN)C(=O)N[C@@H](CCCCN)C(=O)O [pAntp_p16(2)]
mice died (A549 cells xenograft; 0.1 mg group): one | mice died (A549 cells xenograft; 0.2 mg group): no animals died | number of dead animals (HCT-116 cells xenograft): 2

DAAREGFLDTLVVLHRAGARS YGRKKRRQRRRG (DAAREGFLDTLVVLHRAGARSYGRKKRRQRRRG; Tat_p16, chimeric peptide; listed as Homo Sapiens)
time at which G0/G1 phase starts to decrease [2, 5]: simultaneously with G0/G1-phase in control sample | time at which S-phase begins to increase [2, 5]: 12 h | time of maximum S-phase [2, 5]: 14 h | time of maximum difference of cell cycle phases between control and test samples [2, 5]: about 12 hours | time of maximum difference of cell cycle phases between control and test samples ([2]; after sync block removal, 40 μM, listed as Tatp16): 12 h | antiproliferative effect on cell cycle ([2]; 40 μM): arrest of G1-S transition | time at which increase in G2-phase occurs ([2]; same experiment as cyclin B RT-PCR): 16 h | effect on expression of cyclin B (cyclin B; HEK293 synchronized in G0/G1, Tat_p16 40 μmol): inhibits the expression of B cyclin | incubation time after which cyclin B expression level increases (cyclin B; control maximum at 12 hours): 16 h

YGRKKRRQRRRGPVKRRLDL [Tat_p21]
time of maximum difference of cell cycle phases between control and test samples [2, 5]: 10 to 12 h | time at which G2/M-phase level reaches a maximum value ([2]; average): 18 to 20 h | antiproliferative effect on cell cycle ([2]; 40 μM): arrest of transition of cells from S-phase in G2/M-phase | level of S-phase remaining over 14 hours of incubation ([2]; test sample, over 14 hours): 65-70% | dependence of the level of apoptosis on the incubation time (HEK293 cell line): has not been observed | mean apoptosis values versus control samples (HEK293 cell line; 24 hours, 40 μMol): no significant differences

pAntp_p16(1): chimeric peptide, p16INK4a fragment at C-terminus, pAntp at N-terminus (SEQ ID NO: 10), solid phase synthesis (RQIKIWFQNRRMKWKKDAAREGFLDTLVVLHRAGAR; pAntp_p16(1), chimeric peptide; listed as Homo Sapiens)
effect on the level of apoptosis [3]: markedly increases | changes of the cell cycle phases [4]: fails to induce the expected cytostatic effect | anti-proliferative effect on cells ([4]; summary of HEK293 and A549 experiments): does not have an anti-proliferative effect

pAntp_zam: control peptide with p16INK4a sequence (amino acids 82-102) with substitution of tyrosine by alanine at position 92 (RQIKIWFQNRRMKWKKDAAREGFLDALVVLHRAGAR; pAntp_zam, chimeric peptide; listed as Homo Sapiens) [reference compound]
effect on the level of apoptosis [3]: not affected | changes of the cell cycle phases [4]: do not differ from the control
